Experiments:
bedstraw = assay: Test B pre/postemergence bedstraw; format: in vivo, Galium aparine; settings: for Bedstraw plant response rating: Rate 500 g/ha
Description: (§1) Seeds of bedstraw (Galium aparine), blackgrass (Alopecurus myosuroides), surinam grass (Brachiaria decumbens), cocklebur (Xanthium strumarium), corn (Zea mays), crabgrass (Digitaria sanguinalis), giant foxtail (Setaria faberii), morningglory (Ipomoea hederacea), pigweed (Amaranthus retroflexus), rape (Brassica napus), soybean (Glycine max), sugar beet (Beta vulgaris), velvetleaf (Abutilon theophrasti), wheat (Triticum aestivum), wild oat (Avena fatua) and purple nutsedge (Cyperus rotundus) tubers were planted and treated preemnergence with test chemicals formulated in a non-phytotoxic solvent mixture which included a surfactant.
(§2) At the same time, these crop and weed species were also treated with postemergence applications of test chemicals formulated in the same manner. Plants ranged in height from 2 to 18 cm (1- to 4-leaf stage) for postemergence treatments. Plant species in the flood test consisted of rice (Oryza sativa), smallflower flatsedge (Cyperus difformis), duck salad (Heteranthera limosa) and bamyardgrass (Echinochloa crus-galli) grown to the 2-leaf stage for testing. Treated plants and controls were maintained in a greenhouse for twelve to sixteen days, after which all species were compared to controls and visually evaluated. Plant response ratings, summarized in Table B, are based on a scale of 0 to 10 where 0 is no effect and 10 is complete control. A dash (−) response means no test result.

purple nutsedge = assay: Test B pre/postemergence purple nutsedge; format: in vivo, Cyperus rotundus
Description: as §1, §2

crabgrass = assay: Test B pre/postemergence crabgrass; format: in vivo, Digitaria sanguinalis
Description: as §1, §2

surinam grass = assay: Test B pre/postemergence surinam grass; format: in vivo, Brachiaria decumbens
Description: as §1, §2

velvetleaf = assay: Test B pre/postemergence velvetleaf; format: in vivo, Abutilon theophrasti
In short: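 Response is a visual 0-to-10 score relative to untreated plants, where 0 means no effect and 10 means complete control, taken twelve to sixteen days after application. Treatments went onto soil at planting and onto foliage of 1- to 4-leaf plants, using a surfactant-containing non-phytotoxic solvent.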

corn = assay: Test B pre/postemergence corn; format: in vivo, Zea mays
Description: as §1, §2

giant foxtail = assay: Test B pre/postemergence giant foxtail; format: in vivo, Setaria faberii
Description: as §1, §2

wild oat = assay: Test B pre/postemergence wild oat; format: in vivo, Avena fatua
Description: as §1, §2

rape = assay: Test B pre/postemergence rape; format: in vivo, Brassica napus
Description: as §1, §2

soybean = assay: Test B pre/postemergence soybean; format: in vivo, Glycine max
Description: as §1, §2

cocklebur = assay: Test B pre/postemergence cocklebur; format: in vivo, Xanthium strumarium
Description: as §1, §2

pigweed = assay: Test B pre/postemergence pigweed; format: in vivo, Amaranthus retroflexus
Description: as §1, §2

sugar beet = assay: Test B pre/postemergence sugar beet; format: in vivo, Beta vulgaris
Description: as §1, §2

blackgrass = assay: Test B pre/postemergence blackgrass; format: in vivo, Alopecurus myosuroides
Description: as §1, §2

morningglory = assay: Test B pre/postemergence morningglory; format: in vivo, Ipomoea hederacea
Description: as §1, §2

wheat = assay: Test B pre/postemergence wheat; format: in vivo, Triticum aestivum
Description: as §1, §2

[1] = Preemergence, Rate 62 g/ha, scale 0 to 10, 0 is no effect, 10 is complete control
[2] = Preemergence, Rate 125 g/ha, scale 0 to 10 (0 no effect, 10 complete control)
[3] = Preemergence, Rate 250 g/ha, scale of 0 to 10 where 0 is no effect and 10 is complete control
[4] = Postemergence, Rate 62 g/ha, scale 0 to 10, 0 is no effect, 10 is complete control
[5] = Postemergence, Rate 250 g/ha, scale 0 to 10, 0 no effect, 10 complete control
[6] = Preemergence, Rate 500 g/ha, scale 0 (no effect) to 10 (complete control)
[7] = Rate 125 g/ha, Postemergence, scale 0 to 10, 0 no effect, 10 complete control
[8] = Rate 500 g/ha, Postemergence, 0 to 10 scale (0 no effect, 10 complete control)

Cc1ccccc1-n1c(=O)on(C(=O)N(c2ccc(C(F)(F)F)cc2)C(C)C)c1=O [Compound 39]
Plant response rating, Bedstraw (bedstraw; [1]): 0 | Plant response rating, Bedstraw (bedstraw; [2]): 0 | Plant response rating, Bedstraw (bedstraw; [3]): 0 | Bedstraw plant response rating (bedstraw; Preemergence, scale 0 (no effect) to 10 (complete control)): 0 | Bedstraw plant response rating (bedstraw; Postemergence, 0 to 10 scale (0 no effect, 10 complete control)): 0 | Nutsedge plant response rating (purple nutsedge; [4]): 0 | Nutsedge plant response rating (purple nutsedge; [5]): 0 | Plant response rating, Nutsedge (purple nutsedge; [1]): 0 | Plant response rating, Nutsedge (purple nutsedge; [2]): 0 | Plant response rating, Nutsedge (purple nutsedge; [3]): 0 | Nutsedge plant response rating (purple nutsedge; [6]): 0 | Nutsedge plant response rating (purple nutsedge; [7]): 0 | Nutsedge plant response rating (purple nutsedge; [8]): 0 | Crabgrass plant response rating (crabgrass; [4]): 0 | Crabgrass plant response rating (crabgrass; [5]): 3 | Plant response rating, Crabgrass (crabgrass; [1]): 0 | Plant response rating, Crabgrass (crabgrass; [2]): 3 | Plant response rating, Crabgrass (crabgrass; [3]): 5 | Crabgrass plant response rating (crabgrass; [6]): 6 | Crabgrass plant response rating (crabgrass; [7]): 0 | Crabgrass plant response rating (crabgrass; [8]): 4 | B. signalgrass plant response rating (surinam grass; [4]): 0 | B. signalgrass plant response rating (surinam grass; [5]): 0 | Plant response rating, B. signalgrass (surinam grass; [1]): 0 | Plant response rating, B. signalgrass (surinam grass; [2]): 0 | Plant response rating, B. signalgrass (surinam grass; [3]): 0 | B. signalgrass plant response rating (surinam grass; [6]): 0 | B. signalgrass plant response rating (surinam grass; [7]): 0 | B. signalgrass plant response rating (surinam grass; [8]): 0 | Velvetleaf plant response rating (velvetleaf; [5]): 0 | Plant response rating, Velvetleaf (velvetleaf; [1]): 0 | Plant response rating, Velvetleaf (velvetleaf; [2]): 0 | Plant response rating, Velvetleaf (velvetleaf; [3]): 0 | Velvetleaf plant response rating (velvetleaf; [6]): 0 | Velvetleaf plant response rating (velvetleaf; [7]): 0 | Corn plant response rating (corn; [4]): 0 | Corn plant response rating (corn; [5]): 0 | Plant response rating, Corn (corn; [1]): 0 | Plant response rating, Corn (corn; [2]): 0 | Plant response rating, Corn (corn; [3]): 0 | Corn plant response rating (corn; [6]): 0 | Corn plant response rating (corn; [7]): 0 | Corn plant response rating (corn; [8]): 0 | Giant foxtail plant response rating (giant foxtail; [4]): 0 | Giant foxtail plant response rating (giant foxtail; [5]): 0 | Plant response rating, Giant foxtail (giant foxtail; [1]): 0 | Plant response rating, Giant foxtail (giant foxtail; [2]): 0 | Giant foxtail plant response rating (giant foxtail; [6]): 10 | Giant foxtail plant response rating (giant foxtail; [7]): 0 | Giant foxtail plant response rating (giant foxtail; [8]): 0 | Wild oats plant response rating (wild oat; [4]): 0 | Wild oats plant response rating (wild oat; [5]): 0 | Plant response rating, Wild oats (wild oat; [2]): 0 | Plant response rating, Wild oats (wild oat; [3]): 0 | Wild oats plant response rating (wild oat; [6]): 0 | Wild oats plant response rating (wild oat; [7]): 0 | Rape plant response rating (rape; [4]): 0 | Rape plant response rating (rape; [5]): 0 | Plant response rating, Rape (rape; [1]): 2 | Plant response rating, Rape (rape; [2]): 0 | Plant response rating, Rape (rape; [3]): 0 | Rape plant response rating (rape; [6]): 0 | Rape plant response rating (rape; [7]): 0 | Rape plant response rating (rape; [8]): 0 | Soybean plant response rating (soybean; [4]): 3 | Soybean plant response rating (soybean; [5]): 4 | Plant response rating, Soybean (soybean; [1]): 0 | Plant response rating, Soybean (soybean; [2]): 0 | Plant response rating, Soybean (soybean; [3]): 0 | Soybean plant response rating (soybean; [6]): 0 | Soybean plant response rating (soybean; [7]): 4 | Cocklebur plant response rating (cocklebur; [4]): 0 | Cocklebur plant response rating (cocklebur; [5]): 0 | Plant response rating, Cocklebur (cocklebur; [1]): 0 | Plant response rating, Cocklebur (cocklebur; [2]): 0 | Plant response rating, Cocklebur (cocklebur; [3]): 0 | Cocklebur plant response rating (cocklebur; [6]): 0 | Cocklebur plant response rating (cocklebur; [7]): 0 | Cocklebur plant response rating (cocklebur; [8]): 0 | Redroot pigweed plant response rating (pigweed; [4]): 0 | Redroot pigweed plant response rating (pigweed; [5]): 0 | Plant response rating, Redroot pigweed (pigweed; [1]): 0 | Plant response rating, Redroot pigweed (pigweed; [2]): 5 | Plant response rating, Redroot pigweed (pigweed; [3]): 6 | Redroot pigweed plant response rating (pigweed; [6]): 6 | Redroot pigweed plant response rating (pigweed; [7]): 0 | Redroot pigweed plant response rating (pigweed; [8]): 0 | Sugarbeets plant response rating (sugar beet; [4]): 0 | Sugarbeets plant response rating (sugar beet; [5]): 0 | Plant response rating, Sugarbeets (sugar beet; [1]): 2 | Plant response rating, Sugarbeets (sugar beet; [2]): 0 | Plant response rating, Sugarbeets (sugar beet; [3]): 0 | Sugarbeets plant response rating (sugar beet; [6]): 0 | Sugarbeets plant response rating (sugar beet; [7]): 0 | Blackgrass plant response rating (blackgrass; [4]): 0 | Blackgrass plant response rating (blackgrass; [5]): 0 | Plant response rating, Blackgrass (blackgrass; [1]): 0 | Plant response rating, Blackgrass (blackgrass; [2]): 0 | Plant response rating, Blackgrass (blackgrass; [3]): 0 | Blackgrass plant response rating (blackgrass; [6]): 0 | Blackgrass plant response rating (blackgrass; [7]): 0 | Blackgrass plant response rating (blackgrass; [8]): 0 | Morningglory plant response rating (morningglory; [4]): 0 | Morningglory plant response rating (morningglory; [5]): 0 | Plant response rating, Morningglory (morningglory; [1]): 0 | Plant response rating, Morningglory (morningglory; [2]): 0 | Plant response rating, Morningglory (morningglory; [3]): 0 | Morningglory plant response rating (morningglory; [6]): 0 | Morningglory plant response rating (morningglory; [7]): 0 | Morningglory plant response rating (morningglory; [8]): 0 | Wheat plant response rating (wheat; [4]): 0 | Wheat plant response rating (wheat; [5]): 0 | Plant response rating, Wheat (wheat; [1]): 0 | Plant response rating, Wheat (wheat; [2]): 0 | Plant response rating, Wheat (wheat; [3]): 0 | Wheat plant response rating (wheat; [6]): 0 | Wheat plant response rating (wheat; [7]): 0
